# Reference: patent US4330529A, “Antibacterial composition” (Fujisawa Pharmaceutical Co., Ltd., priority 1979, dated 1982)
# Like-named read-outs stand apart in the source and are kept apart here.
# Tests used:
# [1] = test system: Pseudomonas aeruginosa No.9; experiment: MIC and FIC, Nutrient agar, multiple inoculator (Test 4); format: cell-based; conditions: P. aeruginosa No.9, 10^8 cells/ml, 20 h
# Experimental: (§1) After the incubation was carried out at 37° C. for 20 hours, MIC values were determined.
# (§2) FIC values and FIC Index were calculated in substantially the same manner as described in Test 1.
# [2] = test system: Pseudomonas aeruginosa No.5; experiment: MIC and FIC, Nutrient agar, multiple inoculator (Tests 4, 5); format: cell-based; conditions: P. aeruginosa No.5, 10^8 cells/ml, 20 h
# Experimental: as §1
# [3] = test system: Pseudomonas aeruginosa No.14; experiment: MIC and FIC, Nutrient agar, multiple inoculator (Test 4); format: cell-based; conditions: P. aeruginosa No.14, 10^8 cells/ml, 20 h
# Experimental: as §1, §2
# Escherichia coli No.14 = experiment: as above; format: cell-based; conditions: E. coli No.14, 10^8 cells/ml, 20 h
# Experimental: as §1
# [4] = test system: Pseudomonas aeruginosa No.15; experiment: as above; format: cell-based; conditions: P. aeruginosa No.15, 10^8 cells/ml, 20 h
# Experimental: as §1, §2
# [5] = test system: Pseudomonas aeruginosa No.7; experiment: as above; format: cell-based; conditions: P. aeruginosa No.7, 10^8 cells/ml, 20 h
# Experimental: as §1, §2
# Enterobacter aerogenes 7 = experiment: MIC and FIC, Nutrient agar (Tests 6, 7, 9); format: cell-based; conditions: E. aerogenes 7, 18 h
# Experimental: as §2
# [6] = test system: Pseudomonas aeruginosa 42; experiment: MIC and FIC, Nutrient agar (Test 7); format: cell-based
# Experimental: as §2
# Enterobacter cloacae 18 = experiment: MIC and FIC, Nutrient agar (Tests 7, 9); format: cell-based; conditions: Enterobacter cloacae, 18, 18 h, E. cloacae 18, read-out: MIC
# Experimental: as §2
# Escherichia coli 116 = experiment: MIC and FIC, Nutrient agar (Test 7); format: cell-based; conditions: E. coli 116, 18 h
# Experimental: as §2
# [7] = test system: Enterobacter aerogenes 25; experiment: microbe, parasite or virus in culture; conditions: Klebsiella aerogenes, 25, 18 h
# Proteus mirabilis 48 = experiment: MIC and FIC, Nutrient agar (Test 7); format: cell-based; conditions: P. mirabilis 48, 18 h
# Experimental: as §2
# Citrobacter freundii 35 = experiment: MIC and FIC, Nutrient agar (Tests 6, 7, 9); format: cell-based; conditions: C. freundii 35, 18 h
# Staphylococcus aureus 2 = experiment: MIC and FIC, Nutrient agar (Test 7); format: cell-based; conditions: S. aureus 2, 18 h
# Experimental: as §2
# Escherichia coli 82 = experiment: MIC and FIC, Nutrient agar (Test 7); format: cell-based; conditions: E. coli 82, 18 h
# Experimental: as §2
# Proteus vulgaris 7 = experiment: MIC and FIC, Nutrient agar (Tests 7, 9); format: cell-based; conditions: Proteus vulgaris, 7, 18 h, P. vulgaris 7
# [8] = test system: Pseudomonas aeruginosa 77; experiment: MIC and FIC, Nutrient agar (Test 7); format: cell-based; conditions: P. aeruginosa 77, 18 h
# Experimental: as §2
# Escherichia coli 99 = experiment: MIC and FIC, Nutrient agar (Test 6); conditions: E. coli 99; 18 h
# Experimental: as §2
# Serratia marcescens 9 = experiment: MIC and FIC, Nutrient agar (Test 6); format: cell-based; conditions: S. marcescens 9; 18 h
# Experimental: as §2
# Klebsiella pneumoniae 8 = experiment: Isobologram, growth in Nutrient broth in various combination ratios (Test 8); format: cell-based; set-up: key: +: the test microorganism grew; -: the test microorganism did not grow; conditions: phosphonic acid salt 0
# Experimental: After the incubation was carried out at 37° C. for 18 hours, the growth of the test organism was observed.
# Proteus vulgaris 5 = experiment: MIC and FIC, Nutrient agar (Test 6); format: cell-based; conditions: P. vulgaris 5; 18 h
# Experimental: as §2
# [9] = test system: Pseudomonas aeruginosa No.12; experiment: MIC and FIC, Nutrient agar, multiple inoculator (Test 5); format: cell-based; conditions: P. aeruginosa No.12; 10^8 cells/ml, 20 h
# Experimental: as §1, §2
# [10] = test system: Pseudomonas aeruginosa No.18; experiment: as above; format: cell-based; conditions: P. aeruginosa No.18; 10^8 cells/ml, 20 h
# Experimental: as §1, §2
# [11] = test system: Pseudomonas aeruginosa No.11; experiment: as above; format: cell-based; conditions: P. aeruginosa No.11; 10^8 cells/ml, 20 h
# Experimental: as §1, §2
# Staphylococcus aureus 3 = experiment: MIC and FIC, Nutrient agar (Tests 6, 7); format: cell-based; conditions: S. aureus 3; 18 h
# Experimental: as §2
# [12] = test system: Pseudomonas aeruginosa No.13; experiment: MIC and FIC, Nutrient agar, multiple inoculator (Test 5); format: cell-based; conditions: P. aeruginosa No.13; 10^8 cells/ml, 20 h
# Experimental: as §1, §2
# Serratia marcescens 27 = experiment: MIC and FIC, Nutrient agar (Test 7); format: cell-based; conditions: S. marcescens 27, 18 h
# Experimental: as §2
# Proteus mirabilis 5 = experiment: MIC and FIC, Nutrient agar (Test 7); format: cell-based; conditions: P. mirabilis 5, 18 h
# Experimental: as §2
# Staphylococcus aureus 1 = experiment: MIC and FIC, Nutrient agar (Test 7); format: cell-based; conditions: S. aureus 1, 18 h
# Experimental: as §2
# Proteus vulgaris 22 = experiment: MIC and FIC, Nutrient agar (Test 9); format: cell-based; conditions: P. vulgaris 22, 18 h
# Experimental: as §2
# Citrobacter freundii 63 = experiment: MIC and FIC, Nutrient agar (Test 9); format: cell-based; conditions: C. freundii 63, 18 h
# Experimental: as §2
# Serratia marcescens 4 = experiment: MIC and FIC, Nutrient agar (Test 9); format: cell-based; conditions: S. marcescens 4, 18 h
# Experimental: as §2
# [13] = Klebsiella aerogenes, read-out: MIC
molecule,measurement,setting,value
"CC1(C)S[C@@H]2[C@H](NC(=O)C(C(=O)O)c3ccccc3)C(=O)N2[C@H]1C(=O)O (some centres unmarked) [B (Table 6), carbenicillin]",MIC,[1],> 800 µg/mL
same,MIC,"[2]; Pseudomonas aeruginosa, read-out: MIC",50 µg/mL
same,MIC,[3],> 800 µg/mL
same,MIC,Escherichia coli No.14,12.5 µg/mL
same,MIC,[4],800 µg/mL
same,MIC,[5],> 800 µg/mL
"NC[C@H]1O[C@H](O[C@H]2[C@H](O)[C@@H](O[C@H]3O[C@H](CO)[C@@H](O)[C@H](N)[C@H]3O)[C@H](N)C[C@@H]2N)[C@H](N)[C@@H](O)[C@@H]1O [B (Table 12), bekanamycin]",MIC,Enterobacter aerogenes 7; [13],6.25 µg/mL
same,MIC,"[6]; Pseudomonas aeruginosa, 42, 18 h",100 µg/mL
same,MIC,Enterobacter cloacae 18,6.25 µg/mL
same,MIC,Escherichia coli 116,200 µg/mL
"NC[C@@H]1CC[C@@H](N)[C@@H](O[C@H]2[C@H](O)[C@@H](O[C@H]3O[C@H](CO)[C@@H](O)[C@H](N)[C@H]3O)[C@H](N)C[C@@H]2N)O1 [B (Table 10), dibekacin]",MIC,[7],6.25 µg/mL
same,MIC,Proteus mirabilis 48,12.5 µg/mL
same,MIC,"Citrobacter freundii 35; Citrobacter freundii, 35, 18 h",6.25 µg/mL
same,MIC,Staphylococcus aureus 2,1.56 µg/mL
same,MIC,Escherichia coli 82,6.25 µg/mL
same,MIC,Proteus vulgaris 7,50 µg/mL
same,MIC,[8],3.13 µg/mL
gentamicin [B (Table 7)],MIC,Escherichia coli 99,12.5 µg/mL
same,MIC,Serratia marcescens 9,50 µg/mL
same,MIC,Enterobacter aerogenes 7,6.25 µg/mL
same,growth of the test organism,Klebsiella pneumoniae 8; gentamicin sulfate 0.001 mcg/ml,+
same,growth of the test organism,Klebsiella pneumoniae 8; gentamicin sulfate 0.003 mcg/ml,+
same,growth of the test organism,Klebsiella pneumoniae 8; gentamicin sulfate 0.006 mcg/ml,+
same,growth of the test organism,Klebsiella pneumoniae 8; gentamicin sulfate 0.01 mcg/ml,+
same,growth of the test organism,Klebsiella pneumoniae 8; gentamicin sulfate 0.025 mcg/ml,+
same,growth of the test organism,Klebsiella pneumoniae 8; gentamicin sulfate 0.05 mcg/ml,-
same,MIC,Proteus vulgaris 5,6.25 µg/mL
same,MIC,[2],50 µg/mL
same,MIC,Citrobacter freundii 35,3.13 µg/mL
same,MIC,[9],12.5 µg/mL
same,MIC,[10],50 µg/mL
same,MIC,[11],3.13 µg/mL
same,MIC,Staphylococcus aureus 3,0.39 µg/mL
same,MIC,[12],100 µg/mL
"NCC[C@H](O)C(=O)N[C@@H]1C[C@H](N)[C@@H](O[C@H]2O[C@H](CN)[C@@H](O)[C@H](O)[C@H]2O)[C@H](O)[C@H]1O[C@H]1O[C@H](CO)[C@@H](O)[C@H](N)[C@H]1O [B (Table 11), amikacin]",MIC,Enterobacter aerogenes 7; [13],6.25 µg/mL
same,MIC,Serratia marcescens 27,12.5 µg/mL
same,MIC,Proteus mirabilis 5,3.13 µg/mL
same,MIC,"[6]; Pseudomonas aeruginosa, P. aeruginosa 42, 18 h, read-out: MIC",6.25 µg/mL
same,MIC,Staphylococcus aureus 1,0.78 µg/mL
"CC1=C(C(=O)O)N2C(=O)[C@@H](NC(=O)[C@H](N)c3ccccc3)[C@H]2SC1 [B (Table 14), Cephalexin]",MIC,Enterobacter aerogenes 7; [13],100 µg/mL
same,MIC,Proteus vulgaris 22,25 µg/mL
same,MIC,Citrobacter freundii 63,400 µg/mL
same,MIC,Serratia marcescens 4,400 µg/mL
same,MIC,Enterobacter cloacae 18,100 µg/mL
